Measured values: PubChem BioAssay (NCI)
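In this assay, cells in 96-well plates receive the compound at five concentrations for 48 hours. Endpoints are linearly interpolated between the surrounding concentrations. Here, GI50 denotes the concentration required for 50% inhibition of growth. TGI: concentration producing complete growth inhibition.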

What was measured:
Assay in all cases: growth of human tumour cells (NCI), 48 h
HCT-116 colon = test system: HCT-116 colon
A498 renal = test system: A498 renal
OVCAR-4 ovarian = test system: OVCAR-4 ovarian
SK-MEL-2 melanoma = test system: SK-MEL-2 melanoma
MDA-MB-231 breast = test system: MDA-MB-231 breast
MCF7 breast = test system: MCF7 breast
NCI-H460 lung = test system: NCI-H460 lung
SF-295 CNS = test system: SF-295 CNS
HOP-92 NSCLC = test system: HOP-92 NSCLC
K-562 leukemia = test system: K-562 leukemia

Row | Compound | GI50 (HCT-116 colon) | TGI (HCT-116 colon) | GI50 (A498 renal) | TGI (A498 renal) | GI50 (OVCAR-4 ovarian) | TGI (OVCAR-4 ovarian) | GI50 (SK-MEL-2 melanoma) | TGI (SK-MEL-2 melanoma) | GI50 (MDA-MB-231 breast) | TGI (MDA-MB-231 breast) | GI50 (MCF7 breast) | TGI (MCF7 breast) | GI50 (NCI-H460 lung) | TGI (NCI-H460 lung) | GI50 (SF-295 CNS) | TGI (SF-295 CNS) | TGI (HOP-92 NSCLC) | TGI (K-562 leukemia) | GI50 (HOP-92 NSCLC) | GI50 (K-562 leukemia)
1 | COc1cc(C(=O)Nc2cc(O)c(CC=C(C)C)c(O)c2)cc2c1O[C@]1(C)CC[C@@H](O)C(C)(C)[C@H]1C2 | 0.219 µM | 10.8 µM | 0.147 µM | 15.7 µM | 10.1 µM | > 100 µM | 0.143 µM | 8.21 µM | 1.16 µM | 4.53 µM | 0.256 µM | 15.4 µM | 0.547 µM | 19.1 µM | 0.0397 µM | 0.325 µM | – | – | – | –
2 | O=Nc1c(-c2c(O)[nH]c3ncccc23)[nH]c2ccccc12 | 6.12 µM | > 100 µM | 1.93 µM | > 100 µM | 9.1 µM | > 100 µM | – | – | 16 µM | > 100 µM | 18.7 µM | > 100 µM | 7.25 µM | > 100 µM | > 100 µM | > 100 µM | > 100 µM | > 100 µM | – | –
3 | C1CSCCSCCCSCCSCCCSCCSCCCSCCSC1 | – | > 100 µM | – | > 100 µM | – | > 100 µM | – | > 100 µM | – | – | – | > 100 µM | – | > 100 µM | – | > 100 µM | > 100 µM | > 100 µM | – | –
4 | CC(C)(C)c1cc2nc(c1)C(C(F)(F)F)(C(F)(F)F)OB(Br)OC2(C(F)(F)F)C(F)(F)F | – | – | – | – | – | – | – | 11.2 µM | – | – | – | – | – | – | – | 3.4 µM | – | 10 µM | – | –
5 | CC1=C(C(=O)Nc2ccc(Cl)c(Cl)c2)C(c2ccc([N+](=O)[O-])cc2)C(C(=O)Nc2ccc(Cl)c(Cl)c2)=C(C)N1 | – | 3.51 µM | – | 14.8 µM | – | 11.8 µM | – | 4.79 µM | – | – | – | – | – | 6.15 µM | – | 9.24 µM | 6.06 µM | – | – | –
6 | COc1cc(C2(C)SCCCS2)cc(OC)c1OC | – | > 100 µM | – | > 100 µM | – | > 100 µM | – | > 100 µM | – | – | – | – | – | > 100 µM | – | > 100 µM | > 100 µM | > 100 µM | – | –
7 | Cc1ccc(C2C3Cc4ccccc4C3=NN2c2ccc(S(=O)(=O)/N=c3\scc(-c4ccccc4)n3-c3ccccc3)cc2)cc1 (stereo not given) | 18.6 µM | > 100 µM | 14.9 µM | 36.1 µM | – | – | 21.9 µM | 52.6 µM | 14.9 µM | 32.7 µM | 5.71 µM | 33.7 µM | 18.1 µM | 45.1 µM | 19.1 µM | 40.1 µM | 41.7 µM | 32.6 µM | 18.8 µM | 14.9 µM
8 | Cc1cc(=O)c2c(O)cc3c(c2o1)CC=C(COC1OC(COC2OC(CO)C(O)C(O)C2O)C(O)C(O)C1O)CO3 (stereo not given) | – | > 100 µM | – | – | – | > 100 µM | – | > 100 µM | – | – | – | – | – | > 100 µM | – | > 100 µM | > 100 µM | > 100 µM | – | –
9 | O=C(NCCNCCO)c1cccc2ccc(-c3ccccc3)nc12 | – | 11.8 µM | – | 8.41 µM | – | 18.5 µM | – | 20.2 µM | – | – | – | – | – | 11.6 µM | – | 18.9 µM | 11.7 µM | > 100 µM | – | –
10 | Cc1ccncc1C(N)=O | > 100 µM | > 100 µM | > 100 µM | > 100 µM | – | – | – | – | > 100 µM | > 100 µM | > 100 µM | > 100 µM | > 100 µM | > 100 µM | > 100 µM | > 100 µM | > 100 µM | > 100 µM | > 100 µM | > 100 µM
11 | COc1ccc(-c2[nH]c3ccccc3c2CCNS(=O)(=O)c2ccc(C)cc2)cc1 | – | > 10 µM | – | > 10 µM | – | – | – | > 10 µM | – | – | – | – | – | > 10 µM | – | > 10 µM | > 10 µM | > 10 µM | – | –
12 | Oc1cccc2c1NCCC2 | 0.1 µM | > 100 µM | 2.57 µM | 9.07 µM | 1.65 µM | > 100 µM | 0.433 µM | 2.96 µM | 0.183 µM | > 100 µM | – | – | 0.103 µM | 4.66 µM | 0.139 µM | > 22.6 µM | 0.066 µM | > 73.9 µM | 0.0231 µM | 0.141 µM
13 | CC1c2ccccc2CCN1c1ccc(CO)c(Cl)c1 (stereo not given) | 0.0345 µM | 12.6 µM | 0.0149 µM | 0.0888 µM | 0.049 µM | 2.7 µM | – | – | 15.5 µM | 58.4 µM | 0.0565 µM | 23.2 µM | 0.0864 µM | 3.3 µM | 0.274 µM | 31.4 µM | 16.6 µM | > 100 µM | 0.19 µM | 0.385 µM
14 | c1ccc2c(c1)CCc1c-2n[nH]c1-c1[nH]nc2c1CCc1ccccc1-2 | – | > 100 µM | – | > 100 µM | – | – | – | > 100 µM | – | – | – | – | – | > 100 µM | – | > 100 µM | > 100 µM | > 100 µM | – | –
15 | O=C1OC(=O)c2c1c(-c1ccccc1)nc1ccccc21 | – | > 100 µM | – | > 100 µM | – | – | – | > 100 µM | – | – | – | – | – | > 100 µM | – | > 100 µM | – | > 100 µM | – | –
16 | CCCC(S(=O)(=O)c1ccccc1)S(=O)(=O)c1ccccc1 | – | > 100 µM | – | > 100 µM | – | > 100 µM | – | > 100 µM | – | – | – | – | – | > 100 µM | – | > 100 µM | – | > 100 µM | – | –
17 | O=C1c2ccccc2N2OC3(N4CCCC4)CCCCC3C12c1ccccc1 (stereo not given) | – | 27.6 µM | – | > 100 µM | – | 28.1 µM | – | – | – | – | – | – | – | – | – | 32.7 µM | 29.7 µM | 59.8 µM | – | –
18 | C[CH2][Hg][S]c1ccccc1C(=O)O | 1.31 µM | 2.58 µM | 1.64 µM | 4.04 µM | 2.01 µM | 7 µM | – | – | 1.26 µM | 2.58 µM | 1.21 µM | 2.62 µM | 2.64 µM | 8.98 µM | 3.7 µM | 16.5 µM | – | – | – | –
19 | COC(=O)C(C(=O)C(=O)Nc1ccc([N+](=O)[O-])cc1)c1nc2ccc([N+](=O)[O-])cc2[nH]c1=O (stereo not given) | – | > 100 µM | – | > 100 µM | – | > 100 µM | – | > 100 µM | – | – | – | – | – | > 100 µM | – | > 100 µM | > 100 µM | > 100 µM | – | –
20 | Cc1cccc(NC(=O)/C(=N\N)C(c2cnc3ccc([N+](=O)[O-])cc3n2)[N+](=O)[O-])c1C (stereo not given) | – | > 100 µM | – | – | – | > 100 µM | – | > 100 µM | – | – | – | – | – | > 100 µM | – | > 100 µM | > 100 µM | – | – | –
